Converted amounts (≈) assume the structure as drawn. The source made the active and inactive calls. No cut-off for these calls is given here.
These compounds were tested on MCF7 (assay: Cytotoxicity against human MCF7 cells). Details: not given.
Format: functional, cell-based

SMILES	IC50 [µg/mL]
CC1=C(O)C(=O)[C@H]2C(C)(C)CCC[C@]2(C)[C@H]1/C=C/C1=CC(=O)OC1	21.1 (≈ 63.7 µM)
COc1cc(O)c2c(=O)cc(-c3ccccc3)oc2c1 [TECHTOCHRYSIN]	51 (≈ 190 µM)
C=C1CC(=O)[C@H]2C(C)(C)CCC[C@]2(C)[C@H]1C/C=C1\CC(O)OC1=O (stereo not given in full)	49.3 (≈ 148 µM)
CC1=CC(=O)[C@H]2C(C)(C)CCC[C@]2(C)[C@@]1(O)/C=C/c1ccoc1	30.9 (≈ 98.4 µM)
C=C1[C@@H](O)C[C@H]2C(C)(C)CCC[C@]2(C)[C@H]1C/C=C1/CCOC1=O	33.5 (≈ 105 µM)
C=C1C[C@@H](O)[C@H]2C(C)(C)CCC[C@]2(C)[C@H]1/C=C/c1ccoc1 [YUNNACORONARIN A]	28 (≈ 93.4 µM)
O=c1c(O)c(-c2ccccc2)oc2cc(O)cc(O)c12 [GALANGIN]	53.1 (≈ 196 µM)

These compounds were tested on A549 (assay: Cytotoxicity against human A549 cells). Details: not given.
Format: functional, cell-based

SMILES	IC50 [µg/mL]	Activity
CC1=C(O)C(=O)[C@H]2C(C)(C)CCC[C@]2(C)[C@H]1/C=C/C1=CC(=O)OC1	38 (≈ 115 µM)	–
COc1cc(O)c2c(=O)cc(-c3ccccc3)oc2c1 [TECHTOCHRYSIN]	49.6 (≈ 185 µM)	–
C=C1CC(=O)[C@H]2C(C)(C)CCC[C@]2(C)[C@H]1C/C=C1\CC(O)OC1=O (stereo not given in full)	–	inactive
CC1=CC(=O)[C@H]2C(C)(C)CCC[C@]2(C)[C@@]1(O)/C=C/c1ccoc1	41.2 (≈ 131 µM)	–
C=C1[C@@H](O)C[C@H]2C(C)(C)CCC[C@]2(C)[C@H]1C/C=C1/CCOC1=O	–	inactive
C=C1C[C@@H](O)[C@H]2C(C)(C)CCC[C@]2(C)[C@H]1/C=C/c1ccoc1 [YUNNACORONARIN A]	46.6 (≈ 155 µM)	–
O=c1c(O)c(-c2ccccc2)oc2cc(O)cc(O)c12 [GALANGIN]	54.2 (≈ 201 µM)	–

Each compound was assayed on COLO 205 (assay: Cytotoxicity against human COLO205 cells). Details: not given.
Format: functional, cell-based

SMILES	IC50 [µg/mL]
CC1=C(O)C(=O)[C@H]2C(C)(C)CCC[C@]2(C)[C@H]1/C=C/C1=CC(=O)OC1	12 (≈ 36.4 µM)
COc1cc(O)c2c(=O)cc(-c3ccccc3)oc2c1 [TECHTOCHRYSIN]	37.1 (≈ 138 µM)
C=C1CC(=O)[C@H]2C(C)(C)CCC[C@]2(C)[C@H]1C/C=C1\CC(O)OC1=O (stereo not given in full)	27.6 (≈ 82.9 µM)
CC1=CC(=O)[C@H]2C(C)(C)CCC[C@]2(C)[C@@]1(O)/C=C/c1ccoc1	24 (≈ 76.4 µM)
C=C1[C@@H](O)C[C@H]2C(C)(C)CCC[C@]2(C)[C@H]1C/C=C1/CCOC1=O	29.8 (≈ 93.6 µM)
C=C1C[C@@H](O)[C@H]2C(C)(C)CCC[C@]2(C)[C@H]1/C=C/c1ccoc1 [YUNNACORONARIN A]	27.1 (≈ 90.3 µM)
O=c1c(O)c(-c2ccccc2)oc2cc(O)cc(O)c12 [GALANGIN]	33.1 (≈ 123 µM)

What follows are compounds tested on CHO (assay: Cytotoxicity against CHO cells). Details: Cricetulus griseus.
Format: cell-based

SMILES	IC50 [µg/mL]
CC1=C(O)C(=O)[C@H]2C(C)(C)CCC[C@]2(C)[C@H]1/C=C/C1=CC(=O)OC1	7.69 (≈ 23.3 µM)
COc1cc(O)c2c(=O)cc(-c3ccccc3)oc2c1 [TECHTOCHRYSIN]	23.5 (≈ 87.7 µM)
C=C1CC(=O)[C@H]2C(C)(C)CCC[C@]2(C)[C@H]1C/C=C1\CC(O)OC1=O (stereo not given in full)	20.4 (≈ 61.2 µM)
CC1=CC(=O)[C@H]2C(C)(C)CCC[C@]2(C)[C@@]1(O)/C=C/c1ccoc1	15.7 (≈ 49.9 µM)
C=C1[C@@H](O)C[C@H]2C(C)(C)CCC[C@]2(C)[C@H]1C/C=C1/CCOC1=O	21.3 (≈ 67 µM)
C=C1C[C@@H](O)[C@H]2C(C)(C)CCC[C@]2(C)[C@H]1/C=C/c1ccoc1 [YUNNACORONARIN A]	17.9 (≈ 59.5 µM)
O=c1c(O)c(-c2ccccc2)oc2cc(O)cc(O)c12 [GALANGIN]	27 (≈ 99.8 µM)

Each compound was assayed on A-431 (assay: Cytotoxicity against human A431 cells). Details: not given.
Format: functional, cell-based

SMILES	IC50 [µg/mL]
CC1=C(O)C(=O)[C@H]2C(C)(C)CCC[C@]2(C)[C@H]1/C=C/C1=CC(=O)OC1	16 (≈ 48.5 µM)
COc1cc(O)c2c(=O)cc(-c3ccccc3)oc2c1 [TECHTOCHRYSIN]	39 (≈ 145 µM)
C=C1CC(=O)[C@H]2C(C)(C)CCC[C@]2(C)[C@H]1C/C=C1\CC(O)OC1=O (stereo not given in full)	30.5 (≈ 91.8 µM)
CC1=CC(=O)[C@H]2C(C)(C)CCC[C@]2(C)[C@@]1(O)/C=C/c1ccoc1	26.1 (≈ 83 µM)
C=C1[C@@H](O)C[C@H]2C(C)(C)CCC[C@]2(C)[C@H]1C/C=C1/CCOC1=O	31.5 (≈ 99 µM)
C=C1C[C@@H](O)[C@H]2C(C)(C)CCC[C@]2(C)[C@H]1/C=C/c1ccoc1 [YUNNACORONARIN A]	29 (≈ 96.6 µM)
O=c1c(O)c(-c2ccccc2)oc2cc(O)cc(O)c12 [GALANGIN]	39.4 (≈ 146 µM)

Source: ChEMBL document CHEMBL1139295, “Two new cytotoxic diterpenes from the rhizomes of Hedychium spicatum” (Bioorg Med Chem Lett, 2009)
